Measurements taken from US20190106460A1, “BINDING INHIBITORS OF THE BETA. TRANSDUCIN REPEAT-CONTAINING PROTEIN” (priority 2011, published 2019).
Non-standard residues stand in square brackets, D forms with d. Residues, ends and D or L forms follow the SMILES beside them. Groups on a side chain read outwards from the residue. *: point of attachment. X3 = CC(C)CCC[C@@H](C)[C@H]1CCC2C3CC=C4C[C@@H](OC(=O)*)CC[C@]4(C)C3CC[C@@]21C; Benzenesulfonyl(4-OMe) = COc1ccc(S(=O)(=O)*)cc1; Phe(3-F) = N[C@@H](Cc1cccc(F)c1)C(=O)O; Ahx = NCCCCCC(=O)O

How the values were obtained:
Type in all cases: cell-based
[1] = system: PDCD4 in MCF7 cells; test: In-cell western assay for PDCD4 accumulation
Protocol: In-Cell Western Assay for PDCD4 Accumulation.
To measure this an in-cell western assay was used and the peptidomimetics were delivered to the cells by nucleofection.
MCF7 cells were grown in 10 cm dishes in 10 ml DMEM+10% FBS and 1% Pen/Strep at 37° C./5% CO2. On the day of nucleofection, the dish was washed with 90% confluent MCF7 cells with 5 ml PBS, then 3 ml of Trypsin/EDTA was added and incubated at 37° C./5% CO2 for approximately 5 mins until the cells detached from the plastic. 7 ml of normal growth media was added and the number of cells present was counted using a haemocytometer.
The cells were centrifuged cells at 90 g for 10 mins at RT and the supernatant was removed. 100 μl of Nucleofection Buffer V+ Supplement was added (Lonza Biologics Cat no VCA-1003) per 8×10^5 cells, and the cells were added to peptidomimetics dissolved in <3% DMSO.
The cell/peptidomimetic mix was added to cuvettes supplied for the nucleofector and the sample was nucleofected using the recommended MCF7 programme for high cell viability (i.e. E-014). 500 μl of TPA (12-O-tetradecanoylphorbol-13-acetate)-supplemented growth media (i.e. DMEM/10% FBS/1% Pen-Strep/10 nM TPA) was added to the cuvette and 100 μl of this solution was transferred to a well of a 96 well plate and incubated at 37° C./5% CO2 for 8 hours.
The celled were fixed by removing the growth media, adding 3.7% Formaldehyde in PBS and incubating at RT for 20 mins. The plate was washed three times in PBS. And the cells were permeabilised by washing 5× for 5 mins each in PBS+0.1% Triton X-100.
The cells were blocked by adding 3% BSA in PBS-Tween to the cells and incubating at RT for 1.5 hours. An anti-PDCD4 antibody (Abcam cat no: ab80590) was added at a concentration of 1:1000 in 3% BSA in PBS-T (50 ul/well) and incubated at RT for 2.5 hours. The cells were washed 5× for 5 mins each with PBS-T before the secondary antibody (LiCor Biosciences Donkey Anti-Rabbit IRDye 800CW cat no 926-32213) was added at a concentration of 1:1000, along with the DNA stain DRAQ5 at a concentration of 1:10000, in 3% BSA in PBS-T (50 ul/well) and incubated at RT for 1 hour, protected from light.
The cells were washed cells 5× for 5 mins each with PBS-T and all the liquid was removed from the wells before the plate was read on the LiCor Biosciences Odyssey at 700 nm and 800 nm. The reading was normalised in the 800 nm channel to that in the 700 nm channel. The data are shown in FIG. 12, where DMSO was used as a negative control and 20 μM MG132 was used as a positive control. The data is presented as percentage activity with DMSO=0% and […]=100% activity. Error bars represent standard deviation from 3 replicates.
The compounds shown in FIGS. 14A-14B were synthesised to improve cell permeability. […] FIG. 16 compares the round II compounds (shown in FIGS. 14A-14B) with UBP036 in this assay. […] Inhibition of βTrCP, which is responsible for the degradation of both PDCD4 and β-catenin, causes a concomitant stabilisation and accumulation of levels of these proteins which can be measured by in cell western assay.

[2] = system: MCF7:GFP-PDCD4^S71A/S76A; test: Fluorescence reporter assay for PDCD4 accumulation, mutant; conditions: PDCD4 mutated to eliminate PDCD4-βTrCP interaction
Protocol: Fluorescence Reporter Assay for PDCD4 Accumulation
This assay uses two stable cell lines expressing PDCD4 fused to a GFP tag.
The two stable cell lines MCF7:GFP-PDCD4^WT and MCF7:GFP-PDCD4^S71A/S76Awere grown in 10 ml DMEM+10% FBS and 1% Pen/Strep supplemented with 2 mg/ml Geneticin at 37° C./5% CO2. These cell lines were nucleofected as described above except for the additional supplementation of all media with 2 mg/ml Geneticin.
Fluorescent Reporter Assay
The cells were fixed by removing the growth media and adding 3.7% Formaldehyde in PBS to the cells. The cells were then incubated at RT for 20 mins and the plates washed 3× in PBS.
DRAQ5 DNA stain was added to the cells in PBS at a concentration of 1:10000 and incubated at RT for 1 hour protecting from light. The plate was washed 3× in PBS and read on the Perkin Elmer OPERA platform using the nuclei counting algorithm F in both the 488 nm channel (GFP) and 640 nm channel (DRAQ5). DMSO was used as a negative control and 10 μM MG132 was used as a positive control. Error bars represent standard deviation from 6 replicates. The data are expressed as percentage activity with DMSO (WT)=0% and 10 μM MG132 (WT)=100% activity.
This confirms that the stabilisation resulting from the compounds is dependent on the βTrCP/PDCD4 interaction and is not due to another mechanism such as a global increase in protein production.

[3] = system: LNCaP (prostate cancer); test: xCELLigence cell viability / proliferation, LNCaP
Protocol: Example 9—Cell Based Activity of Cell Permeable Compounds on the xCELLigence Platform
The effects of the compounds shown in FIGS. 14A-14B were tested on cancer cell lines MCF7 (breast cancer) and LNCaP (prostate cancer) using the xCELLigence platform (http://www.roche-applied-science.com/sis/xcelligence/ezhome.html). This method of measuring cell viability via measuring cell index is known in the art.
Different doses of the compounds were tested on MCF7 cells to see if there would be an effect on their cell viability.
The control compound was compared to its partner active compound (UBP037).
(§1) xCELLigence Method • Before starting the experiment add 50 μL of medium (RPMI 1640, 10% fetal bovine serum, 100 units/mL penicillin, 100 ug/mL streptomycin, and 2 mmol/L glutamine, all from GIBCO) to each well of 96 well E-plate (Roche) and place the plate in the xCELLigence platform to measure the background. • LNCaP/PNT-1 cells are seeded (LNCaPs 80000 cells/well; PNT1 3000 cells/well) in the plate in complete medium and equilibrated for 60 mins at RT before returning to the xCELLigence platform and incubating at 37° C./5% CO2. • 24 hrs after seeding, remove 100 μL of medium was removed from each well and cells were treated with compounds or DMSO diluted in 100 μL of OptiMEM (GIBCO). • Replace the plate in the xCELLigence platform • Cells growth can then be monitored in real-time by the cell index profile on the xCELLigence readout screen • Cell growth can be expressed as normalized cell index and doubling time/slope calculated using the RTCA software.

[4] = system: PNT-1 cell line; test: xCELLigence cell growth, non-malignant PNT-1
Protocol: as §1
The susceptibility of cancer cell lines versus non-cancer cell lines following treatment with the compounds was also investigated.

COc1ccc(S(=O)(=O)N[C@H](CC(=O)O)C(=O)N[C@@H](CCC(=O)O)C(=O)NCC(=O)N[C@@H](Cc2cccc(F)c2)C(=O)N[C@@H](Cc2c[nH]c3ccccc23)C(=O)N[C@@H](CCC(=O)O)C(=O)NCCCCCC(=O)N[C@@H](CCCCNC(=O)CCCCCNC(=O)O[C@H]2CC[C@@]3(C)C(=CCC4C3CC[C@@]3(C)C4CC[C@@H]3[C@H](C)CCCC(C)C)C2)C(N)=O)cc1 (some centres unmarked) [UBP036, 4-(MeO)PhSO2-dEGF(3F)WE-Ahx-K(Ahx-Chol)-NH2] ({Benzenesulfonyl(4-OMe)}-[dD]EG[Phe(3-F)]WE[Ahx]K([Ahx-X3])-NH2)
accumulation of PDCD4, in cell western ([1]; MCF7, treatment with cell permeable compound): accumulation of PDCD4
cell based activity ([1]; general statement, different delivery vehicles): display cell based activity
accumulation of GFP-PDCD4 Mut, fluorescent reporter assay [2]: no accumulation of PDCD4
cell growth / proliferation, xCELLigence [3]: inhibit the growth
cell growth, xCELLigence [4]: far less effect
